Laboratory results reported in ChEMBL document CHEMBL4811290, “Exploiting the hydrophobic channel of the NNIBP: Discovery of novel diarylpyrimidines as HIV-1 NNRTIs against wild-type and K103N mutant viruses” (Bioorg Med Chem, 2021).
Activity calls are given as the source filed them. No cut-off for these calls is given here.

What was measured:
[1] = test system: Human immunodeficiency virus 1; test: Antiviral activity against wild type HIV-1 IIIB infected in human MT4 cells assessed as inhibition of virus-induced cytopathic effect measured after 5 days by MTT assay; type: functional, organism-based; conditions: Human immunodeficiency virus 1, IIIB, MT4, 120 h
[2] = Cytotoxicity against mock-infected human MT4 cells incubated for 5 days by MTT assay; type: cell-based; conditions: time 5 day
[3] = Selectivity index, ratio of CC50 for human MT4 cells to EC50 for Antiviral activity against HIV-1 IIIB infected in human MT4 cells; type: toxicity, cell-based; conditions: read-out: Selectivity Index
[4] = test system: MT4; test: Antiviral activity against wild type HIV-2 ROD infected in human MT4 cells assessed as inhibition of virus-induced cytopathic effect measured after 5 days by MTT assay; type: functional, cell-based; conditions: Human immunodeficiency virus 2, ISOLATE ROD, time 5.0 day
[5] = test system: Human immunodeficiency virus 1; test: Antiviral activity against HIV1 harboring RT L100I mutant infected in human MT4 cells assessed as inhibition of virus-induced cytopathic effect incubated for 5 days by MTT assay; type: functional, organism-based; conditions: Human immunodeficiency virus 1, MT4, 120 h
[6] = test system: Human immunodeficiency virus 1; test: Antiviral activity against HIV1 harboring K103N mutant infected in human MT4 cells assessed as inhibition of virus-induced cytopathic effect incubated for 5 days by MTT assay; type: functional, organism-based; conditions: Human immunodeficiency virus 1, MT4, 120 h
[7] = test system: Human immunodeficiency virus 1; test: Antiviral activity against HIV1 harboring RT Y181C mutant infected in human MT4 cells assessed as inhibition of virus-induced cytopathic effect incubated for 5 days by MTT assay; type: functional, organism-based; conditions: Human immunodeficiency virus 1, MT4, 120 h
[8] = test system: Human immunodeficiency virus 1; test: Antiviral activity against HIV1 harboring RT Y188L mutant infected in human MT4 cells assessed as inhibition of virus-induced cytopathic effect incubated for 5 days by MTT assay; type: functional, organism-based; conditions: Human immunodeficiency virus 1, MT4, 120 h
[9] = test system: Human immunodeficiency virus 1; test: Antiviral activity against HIV1 harboring RT E138K mutant infected in human MT4 cells assessed as inhibition of virus-induced cytopathic effect incubated for 5 days by MTT assay; type: functional, organism-based; conditions: Human immunodeficiency virus 1, MT4, 120 h
[10] = test system: Human immunodeficiency virus 1; test: Antiviral activity against HIV1 harboring RT F227L/V106A mutant infected in human MT4 cells assessed as inhibition of virus-induced cytopathic effect incubated for 5 days by MTT assay; type: functional, organism-based; conditions: Human immunodeficiency virus 1, MT4, 120 h
[11] = test system: Human immunodeficiency virus 1; test: Antiviral activity against HIV1 harboring RT RES056 mutant infected in human MT4 cells assessed as inhibition of virus-induced cytopathic effect incubated for 5 days by MTT assay; type: functional, organism-based; conditions: Human immunodeficiency virus 1, MT4, 120 h
[12] = Water solubility of compound at pH 2; type: physicochemical

Row | SMILES | EC50 [1] | CC50 at 120 h [2] | selectivity ratio [3] | Activity [4] | EC50 [5] | EC50 [6] | EC50 [7] | EC50 [8] | EC50 [9] | EC50 [10] | EC50 [11] | solubility [12]
1 | Cc1cc(C#CC=C2CCN(C(=O)OC(C)(C)C)CC2)cc(C)c1Oc1ccnc(Nc2ccc(C#N)cc2)n1 | 643 nM | 16700 nM | 26 | inactive | 984 nM | > 56700 nM | > 56700 nM | 5560 nM | > 56700 nM | > 56700 nM | > 56700 nM | –
2 | Cc1cn([C@H]2C[C@H](N=[N+]=[N-])[C@@H](CO)O2)c(=O)[nH]c1=O [ZIDOVUDINE] | 21 nM | > 7480 nM | > 352 | inactive | 9 nM | 22 nM | 15 nM | 12 nM | 35 nM | 10 nM | 24 nM | –
3 | O=C1Nc2ccc(Cl)cc2[C@@](C#CC2CC2)(C(F)(F)F)O1 [EFAVIRENZ] | – | > 6350 nM | – | inactive | 37 nM | 103 nM | 6 nM | 212 nM | 7 nM | – | 332 nM | –
4 | CCOC(=O)CN1CCC(=CC#Cc2cc(C)c(Oc3ccnc(Nc4ccc(C#N)cc4)n3)c(C)c2)CC1 | 7050 nM | 201000 nM | 29 | inactive | > 201000 nM | 39000 nM | > 201000 nM | > 201000 nM | > 201000 nM | > 201000 nM | > 201000 nM | –
5 | C=CC(=O)N1CCC(=CC#Cc2cc(C)c(Oc3ccnc(Nc4ccc(C#N)cc4)n3)c(C)c2)CC1 | 35 nM | 4100 nM | 116 | inactive | 345 nM | 46 nM | 1100 nM | 409 nM | 240 nM | > 4100 nM | > 4100 nM | –
6 | Cc1cc(C#CC=C2CCN(C(=O)N(C)C)CC2)cc(C)c1Oc1ccnc(Nc2ccc(C#N)cc2)n1 | 35 nM | 4430 nM | 125 | inactive | 617 nM | 86 nM | 799 nM | 521 nM | 265 nM | > 4430 nM | > 4430 nM | –
7 | Cc1cc(C#CC=C2CCN(S(=O)(=O)N(C)C)CC2)cc(C)c1Oc1ccnc(Nc2ccc(C#N)cc2)n1 | 114 nM | 4790 nM | 42 | inactive | > 4790 nM | 209 nM | > 4790 nM | > 4790 nM | 750 nM | > 4790 nM | > 4790 nM | –
8 | Cc1cc(C#CC=C2CCN(Cc3ccccn3)CC2)cc(C)c1Oc1ccnc(Nc2ccc(C#N)cc2)n1 | 74 nM | 5580 nM | 75 | inactive | > 5580 nM | 200 nM | 4250 nM | 1030 nM | 805 nM | > 5580 nM | > 5580 nM | –
9 | Cc1cc(C#CC=C2CCN(Cc3cccc([N+](=O)[O-])c3)CC2)cc(C)c1Oc1ccnc(Nc2ccc(C#N)cc2)n1 | 187 nM | 74600 nM | 399 | inactive | 2770 nM | 510 nM | 5550 nM | 5330 nM | 2150 nM | 26700 nM | > 74600 nM | –
10 | Cc1cc(C#N)cc(C)c1Oc1nc(Nc2ccc(C#N)cc2)nc(N)c1Br [ETRAVIRINE] | – | > 4610 nM | – | inactive | 8 nM | – | 20 nM | 21 nM | 19 nM | 20 nM | 67 nM | < 1 µg/mL
11 | CCS(=O)(=O)N1CCC(=CC#Cc2cc(C)c(Oc3ccnc(Nc4ccc(C#N)cc4)n3)c(C)c2)CC1 | 79 nM | 4960 nM | 62 | inactive | 1080 nM | 165 nM | > 1350 nM | 1280 nM | 493 nM | > 4960 nM | > 4960 nM | –
12 | Cc1ccnc2c1NC(=O)c1cccnc1N2C1CC1 [NEVIRAPINE] | 160 nM | > 15000 nM | > 94 | inactive | 2520 nM | 6550 nM | 10500 nM | > 15000 nM | 258 nM | > 15000 nM | > 15000 nM | –
13 | Cc1cc(C#CC=C2CCN(Cc3ccccc3C#N)CC2)cc(C)c1Oc1ccnc(Nc2ccc(C#N)cc2)n1 | 376 nM | > 227000 nM | > 604 | inactive | 8540 nM | 1010 nM | 20400 nM | 16100 nM | 5460 nM | > 42400 nM | > 227000 nM | –
14 | Cc1cc(C#CC=C2CCN(S(=O)(=O)C3CC3)CC2)cc(C)c1Oc1ccnc(Nc2ccc(C#N)cc2)n1 | 98 nM | 4660 nM | 47 | inactive | > 4660 nM | 284 nM | > 4660 nM | 1410 nM | 685 nM | > 4660 nM | > 4660 nM | –
15 | Nc1ccn([C@H]2CS[C@@H](CO)O2)c(=O)n1 | 5230 nM | > 87200 nM | > 309 | inactive | 1150 nM | 2790 nM | 3400 nM | 4560 nM | 8270 nM | 2170 nM | 5060 nM | –
16 | COC(=O)c1ccc(CN2CCC(=CC#Cc3cc(C)c(Oc4ccnc(Nc5ccc(C#N)cc5)n4)c(C)c3)CC2)cc1 | 656 nM | 33600 nM | 51 | inactive | > 33600 nM | 782 nM | > 33600 nM | > 33600 nM | 5460 nM | > 33600 nM | > 33600 nM | –
17 | Cc1cc(C#CC=C2CCN(S(=O)(=O)C(C)C)CC2)cc(C)c1Oc1ccnc(Nc2ccc(C#N)cc2)n1 | 171 nM | 4580 nM | 27 | inactive | > 4580 nM | 573 nM | > 4580 nM | > 4580 nM | 918 nM | > 4580 nM | > 4580 nM | –
